What was measured:
[1] = H2O2 stabilization in papermaking process water (Example 1); settings: for H2O2 residual: 45° C.
Procedure: Process waters from a papermaking facility which uses recycled fibers were collected during a bleaching stage and allowed to stand for 2 hours to achieve total depletion of the hydrogen peroxide in the process waters.
Into five separate Pyrex beakers were placed 400 ml of the process water. One was retained as a control. 150 and 300 ppm of an aqueous solution containing 40% by weight of 1,3-bis(hydroxymethyl)-5,5-dimethylhydantoin (DMDMH) (Dantogard®) were added to two beakers for a total concentration of 60 ppm and 120 ppm of DMDMH, respectively. On an equivalent aldehyde basis, this corresponds to 0.65 mEq/l and 1.30 mEq/l, respectively. 150 and 300 ppm of an aqueous solution containing […] of glutaraldehyde were added to the remaining two beakers for a total concentration of 83 ppm and 166 ppm of glutaraldehyde, respectively. On an equivalent aldehyde basis, this corresponds to 1.66 mEq/l and 3.32 mEq/l, respectively. The samples were placed in a controlled water bath at 45° C. and stirred with a magnetic stirrer set on slow agitation.
To all the test samples, a sufficient volume of a 1% (by weight) hydrogen peroxide (H2O2) aqueous solution was added to achieve a concentration of 20-25 ppm of hydrogen peroxide in the samples. At regular time intervals, over a 45 minute period, aliquots were removed and analyzed for peroxide residual (i.e. the concentration of hydrogen peroxide) using a thiosulfate titration kit (HACH Test Kit, Model HYP-1, available from Hach Company of Loveland, Colo.). The results, shown in Table 1, correlate to the amount of peroxide present at the specific time interval, expressed as ppm of hydrogen peroxide.

[2] = molecular target: T1, catalase (Aspergillus niger, UniProt P55303); assay: Catalase promoted hydrogen peroxide decomposition in phosphate buffer pH 7.0 (Example 6); assay type: biochemical, A. niger; settings: 526 ppm product
T1 construct: purchased Sigma Aldrich C-3515; host or cells: A. niger derived
T1 sequence (P55303 whole entry): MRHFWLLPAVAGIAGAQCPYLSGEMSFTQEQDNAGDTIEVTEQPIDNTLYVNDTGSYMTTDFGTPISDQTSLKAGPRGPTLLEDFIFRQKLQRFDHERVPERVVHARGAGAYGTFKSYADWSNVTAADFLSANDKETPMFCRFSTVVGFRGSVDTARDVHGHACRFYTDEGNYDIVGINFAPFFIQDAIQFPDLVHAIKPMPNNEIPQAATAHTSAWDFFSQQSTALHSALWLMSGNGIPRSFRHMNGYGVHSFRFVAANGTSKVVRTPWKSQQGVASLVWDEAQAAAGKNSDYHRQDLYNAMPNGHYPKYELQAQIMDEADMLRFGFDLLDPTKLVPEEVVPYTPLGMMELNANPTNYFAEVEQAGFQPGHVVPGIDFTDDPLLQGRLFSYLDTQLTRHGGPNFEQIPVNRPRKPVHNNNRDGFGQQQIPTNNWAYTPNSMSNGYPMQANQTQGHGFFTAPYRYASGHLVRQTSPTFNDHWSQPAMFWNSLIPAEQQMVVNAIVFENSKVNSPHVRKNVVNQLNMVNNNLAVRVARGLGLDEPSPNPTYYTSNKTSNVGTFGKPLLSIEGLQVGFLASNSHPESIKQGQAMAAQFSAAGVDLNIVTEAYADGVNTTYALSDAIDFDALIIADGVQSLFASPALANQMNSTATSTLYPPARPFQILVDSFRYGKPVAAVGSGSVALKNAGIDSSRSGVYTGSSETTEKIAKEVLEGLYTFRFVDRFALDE
Procedure: Hydrogen peroxide solutions containing 470 ppm active peroxide in sterile Butterfield's phosphate buffer (pH=7.0) were treated with 1.2 units of catalase (A. niger available from Sigma Aldrich of St. Louis, Mo. (C-3515)) alone or with 263 or 526 ppm of Dantogard® 2000, available from Lonza Inc. of Fair Lawn, N.J., or 526 ppm of an aqueous 49% glutaraldehyde solution. Dantogard® 2000 is a 65% aqueous mixture of DMDMH, MMDMH and DMH having a minimal free formaldehyde concentration. The peroxide decomposition rate was monitored during the decrease in peroxide concentration from 390 to 350 ppm by ultraviolet absorbance at 240 nm. The temperature was 23° C.

## O=CCCCC=O [Glutaraldehyde, glutaraldehyde]
[1]; 83 ppm glutaraldehyde, 0 min
  H2O2 residual: 25 ppm H2O2
[1]; 83 ppm glutaraldehyde, 10 min
  H2O2 residual: 24 ppm H2O2
[1]; 83 ppm glutaraldehyde, 15 min
  H2O2 residual: 22 ppm H2O2
[1]; 83 ppm glutaraldehyde, 20 min
  H2O2 residual: 20 ppm H2O2
[1]; 83 ppm glutaraldehyde, 30 min
  H2O2 residual: 16 ppm H2O2
[1]; 83 ppm glutaraldehyde, 40 min
  H2O2 residual: 14 ppm H2O2
[1]; 83 ppm glutaraldehyde, 45 min
  H2O2 residual: 12 ppm H2O2
[1]; 166 ppm glutaraldehyde, 0 min
  H2O2 residual: 26 ppm H2O2
[1]; 166 ppm glutaraldehyde, 10 min
  H2O2 residual: 24 ppm H2O2
[1]; 166 ppm glutaraldehyde, 15 min
  H2O2 residual: 21 ppm H2O2
[1]; 166 ppm glutaraldehyde, 20 min
  H2O2 residual: 19 ppm H2O2
[1]; 166 ppm glutaraldehyde, 30 min
  H2O2 residual: 17 ppm H2O2
[1]; 166 ppm glutaraldehyde, 40 min
  H2O2 residual: 15 ppm H2O2
[1]; 166 ppm glutaraldehyde, 45 min
  H2O2 residual: 13 ppm H2O2
[2]; 1.2 units catalase, pH 7.0, 23° C., peroxide 390 to 350 ppm
  Peroxide Decomposition Rate: 0.230 ppm/sec
[2]; control = 1.00
  Normalized Decomposition Rate: 1.0

## CC1(C)C(=O)N(CO)C(=O)N1CO [DMDMH, 1,3-bis(hydroxymethyl)-5,5-dimethylhydantoin]
[1]; 60 ppm DMDMH, 0 min
  H2O2 residual: 25 ppm H2O2
[1]; 60 ppm DMDMH, 10 min
  H2O2 residual: 24 ppm H2O2
[1]; 60 ppm DMDMH, 15 min
  H2O2 residual: 23 ppm H2O2
[1]; 60 ppm DMDMH, 20 min
  H2O2 residual: 22 ppm H2O2
[1]; 60 ppm DMDMH, 30 min
  H2O2 residual: 18 ppm H2O2
[1]; 60 ppm DMDMH, 40 min
  H2O2 residual: 16 ppm H2O2
[1]; 60 ppm DMDMH, 45 min
  H2O2 residual: 15 ppm H2O2
[1]; 120 ppm DMDMH, 0 min
  H2O2 residual: 26 ppm H2O2
[1]; 120 ppm DMDMH, 10 min
  H2O2 residual: 24 ppm H2O2
[1]; 120 ppm DMDMH, 15 min
  H2O2 residual: 23 ppm H2O2
[1]; 120 ppm DMDMH, 20 min
  H2O2 residual: 20 ppm H2O2
[1]; 120 ppm DMDMH, 30 min
  H2O2 residual: 18 ppm H2O2
[1]; 120 ppm DMDMH, 40 min
  H2O2 residual: 17 ppm H2O2
[1]; 120 ppm DMDMH, 45 min
  H2O2 residual: 16 ppm H2O2
[1]; Table 1 comparison, ppm product basis
  peroxide stabilization compared to glutaraldehyde: superior peroxide stabilization compared to glutaraldehyde

Reference: US6696093B2, “Aldehyde donors for stabilizing peroxides” (Lonza Inc., priority 2000, dated 2004)
